Data: patent US12366576B2, “Compositions, assays, and methods for direct modulation of fatty acid metabolism” (Dana-Farber Cancer Institute, Inc., priority 2016, dated 2025)
Bridge positions count the residues as written; N and C are the ends. Square brackets hold non-standard residues; d marks the D form. Ends that are not written are not given here. S5 = C=CCCC[C@](C)(N)C(=O)O

Experiments:
CreER^T2 MEFs = test: MS-based acylcarnitine quantification in MEFs; assay type: cell-based, mouse; settings: 10 μM
VLCAD = molecular target: T1, VLCAD (Mus musculus, UniProt P50544); test: Biotinylated SAHB streptavidin pulldown from MEF lysates with MS-based protein identification; assay type: binding; settings: wild-type MEF lysates; three biological replicates; thresholds fold change >8 and p<0.005 versus vehicle
T1 construct: As for native VLCAD from MEF lysates; endogenous in cells; host or cells: SV-40-transformed wild-type mouse embryonic fibroblasts (lysate)
T1 sequence (P50544 42-656): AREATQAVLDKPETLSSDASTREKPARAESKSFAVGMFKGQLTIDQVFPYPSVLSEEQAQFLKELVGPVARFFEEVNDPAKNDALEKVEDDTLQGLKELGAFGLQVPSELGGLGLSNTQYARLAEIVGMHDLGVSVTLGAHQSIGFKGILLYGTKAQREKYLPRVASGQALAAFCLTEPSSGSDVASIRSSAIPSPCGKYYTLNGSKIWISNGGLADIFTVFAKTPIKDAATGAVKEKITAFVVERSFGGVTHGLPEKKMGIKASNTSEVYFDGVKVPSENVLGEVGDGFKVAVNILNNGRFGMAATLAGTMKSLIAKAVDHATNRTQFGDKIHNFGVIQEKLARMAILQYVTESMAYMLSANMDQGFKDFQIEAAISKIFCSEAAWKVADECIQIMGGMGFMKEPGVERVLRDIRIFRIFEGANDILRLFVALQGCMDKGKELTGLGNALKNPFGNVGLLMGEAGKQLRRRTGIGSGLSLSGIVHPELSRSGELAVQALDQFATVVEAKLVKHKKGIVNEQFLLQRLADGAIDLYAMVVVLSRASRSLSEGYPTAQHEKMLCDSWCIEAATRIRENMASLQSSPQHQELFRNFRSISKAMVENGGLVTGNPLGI
Description: An exploratory proteomics analysis was conducted to identify proteins that interact with the MCL-1 BH3 domain helix. An extensive library of MCL-1 stapled BH3 peptides (FIG. 2) was generated to both identify novel protein interactors by mass spectrometry and then deploy the stapled peptide constructs as novel probes to dissect and pharmacologically modulate the identified protein interactors and associated signaling pathways. As an example, an N-terminally biotinylated stapled peptide designed based on the sequence of MCL-1's BH3 domain (Btn-MCL-1 SAHBD), or vehicle, was incubated with wild-type mouse embryonic fibroblast (MEF) lysates, followed by high stringency streptavidin capture. To validate the proteomics workflow and ensure that Btn-MCL-1 SAHBD could, in fact, engage protein interactors in a lysate, eluates were first run on a gel for anti-MCL-1 Western analysis. […]
Wild-type MEFs were trypsinized, washed once with cold PBS, and lysed on ice with NP-40 lysis buffer (50 mM Tris, pH 7.4, 150 mM NaCl, 0.5% (v/v) NP-40, complete protease inhibitor pellet (Roche)) using 1 ml of lysis buffer for every 10 million cells lysed. Cellular debris was pelleted at 14,000 g for 10 min at 4° C., and the supernatant was quantified using the BCA Protein Assay Kit (Thermo Fisher Scientific). […]

“MCL-1 SAHBD: hydrocarbon-stapled peptide mimicking the MCL-1 BH3 domain (Stabilized Alpha-Helix of BCL-2 Domain), SEQ ID NO:19 (RKALETLRRVGDGV[S5]RNH[S5]TAF; staple 15-19)” was tested, and the “levels of very long-chain acylcarnitines relative to vehicle-treated control” value (CreER^T2 MEFs; Mcl-1^F/F CreER^T2 MEFs not exposed to tamoxifen, 48 hours) was “elevated levels”, the “effect on already elevated acylcarnitine levels” value (CreER^T2 MEFs; Mcl-1^F/F CreER^T2 MEFs subjected to tamoxifen (Mcl-1 deleted)) was “no effect” and the “VLCAD identified by MS in pulldown eluates” value (VLCAD) was “repeatedly identified as a high stringency interactor”.
